Results taken from patent US8105745B2, “Radiation crosslinker” (National University of Singapore, priority 2005, dated 2012).

Assays:
[1] = stability of the azide in acidified aqueous MeOD (19F NMR, FTIR); format: physicochemical
Protocol: The azide compounds according to the present invention are stable even in strongly acidic aqueous environment. […] Its ^19F NMR spectrum is acquired within 5 min and again after 21 days. […] This was further confirmed through FTIR analysis of the solid recovered by evaporation after the ^19F NMR experiment. No change in the azide stretching intensity (νasN3, 2129 cm^−1) normalized against benzene (νring, 1546 cm^−1) was observed.

[2] = solubility in solvents; format: physicochemical

| change of 19F NMR spectrum ([1]; 16 mg mL^-1 in acidified deuterated MeOD containing 2.4 M HCl and 6.5 M H2O, within 5 min vs after 21 days) | change in azide stretching intensity (FTIR, 2129 cm^-1) normalized against benzene ring band ([1]; solid recovered by evaporation after the 19F NMR experiment (21 days in acidic aqueous MeOD)) | solubility in H2O [2] | Compound |
| --- | --- | --- | --- |
| No observable change | No change | – | N,N-dimethyl-N,N-dipropylene bis(4-azido-2,3,5,6-tetrafluorobenzamide) ammonium iodide |
| – | – | soluble in H2O | C[N+](C)(CCCNC(=O)c1c(F)c(F)c(N=[N+]=[N-])c(F)c1F)CCCNC(=O)c1c(F)c(F)c(N=[N+]=[N-])c(F)c1F [V] |
